# Experimental data as given in PMC8541992, “Safety, pharmacokinetics, and preliminary efficacy of the PARP inhibitor talazoparib in Japanese patients with advanced solid tumors: phase 1 study” (Investigational New Drugs, 2021).
# Like-named read-outs stand apart in the source and are kept apart here.
# Key:
# [1] = tested on: Japanese patients with locally advanced or metastatic solid tumors; experiment: Phase 1 dose-escalation study: safety (DLTs, TEAEs)
# From the text: This is an ongoing open-label, non-randomized, phase 1 study of the PARP inhibitor, talazoparib, in Japanese patients with locally advanced or metastatic solid tumors regardless of mutations in DDR-related genes who are resistant to standard therapies or for whom no standard therapy is available (ClinicalTrials.gov NCT03343054). The study comprises a dose-escalation phase and a dose-expansion phase conducted in 8 Japanese centers (Supplementary Fig. 1). The objective of the initial dose-escalation phase was to investigate the safety, PK (single-dose and steady-state), and preliminary antitumor activity of single-agent talazoparib in sequential cohorts of patients with advanced solid malignancies. A modified 3 + 3 dose-escalation scheme was used to determine the recommended phase 2 dose in Japanese patients; up to 3 patients could be enrolled simultaneously in a cohort although sometimes due to logistical or clinical reasons more than 3 but no more than 9 patients were enrolled at each dose level. Successive cohorts of patients received escalating doses of talazoparib on an outpatient basis starting from 0.75 mg/day. To understand the single-dose safety and single-dose PK assessments of talazoparib, a lead-in period preceding the continuous daily doses was included. Data for the dose-escalation phase are reported here (data cut-off January 2020).
# Eligible patients were assigned to one of two talazoparib treatment groups (dose levels). Successive cohorts of patients received talazoparib dosed orally at 0.75 mg QD (3 capsules of 0.25 mg) or 1 mg QD (4 capsules of 0.25 mg), with or without food, on an outpatient basis according to a modified 3 + 3 dose-escalation scheme. On Day −7 (lead-in visit), patients received a single dose of talazoparib, followed by continuous daily dosing from Day 1 of each 28-day cycle. Patients continued to receive talazoparib until either disease progression, patient refusal of study treatment, or unacceptable toxicity. Dose modifications were allowed depending on the type and severity of the toxicity encountered. To continue talazoparib, patients were required to have adequate bone marrow functions (hemoglobin ≥8.0 g/dL, absolute neutrophil count ≥1000/mm^3, platelets ≥50,000/mm^3). If grade 1 or grade 2 treatment-related toxicity occurred (other than renal impairment), dose interruption or dose reduction were not required. Daily dosing was paused for grade ≥3 adverse events (AEs) considered related to talazoparib. Supportive care including blood products for hematologic toxicities was allowed as appropriate per local guidance. Talazoparib dosing could resume at the next lower dose level (e.g., from 1.0 mg/day to 0.75 mg/day; 0.75 mg/day to 0.5 mg/day; 0.5 mg/day to 0.25 mg/day) when toxicity resolved to grade 1 or returned to baseline. […]
# [2] = Phase 1 study: single- and multiple-dose plasma pharmacokinetics; assay type: in vivo, human (Japanese patients); settings: for Rac (ratio of AUCtau after multiple doses/AUCtau after single dose) / Rss (ratio of AUCtau after multiple doses/AUCinf after single dose) / Tmax: median (range); for Cmax / AUC / AUC(0-inf) / Cmin: geometric mean (geometric %CV); for half-life: read-out: t1/2 (terminal half-life) (converted); for AUC: AUCtau = AUC24
# Protocol: PK parameters following single- and multiple-dose administration of single-agent talazoparib, included talazoparib area under the plasma concentration-time curve from 0 h to infinity (AUCinf; single dose) and during the dosing interval ([NT], multiple dosing); maximum observed plasma concentration (Cmax); lowest plasma concentration observed during the dosing interval (Cmin); elimination half-life (t1/2); time to Cmax (Tmax); ratio of [NT] after multiple doses/[NT] after single dose (Rac); and ratio of [NT] after multiple doses/AUCinf after single dose (Rss). PK parameters were calculated for each patient using non-compartmental analysis of plasma concentration-time data. Blood samples were collected pre-dose on Day -7, and on Days 1, 15, and 22 of Cycle 1, and Day 1 of Cycles 3 and 4. Post-dose blood samples were also collected at 0.5, 0.75, 1, 2, 3, 4, 6, 8, 10, and 24 h (Day -7 and Day 22 of Cycle 1 only) and at 48, 72, and 96 h (Day -7 only). […] PK parameters and safety data were summarized descriptively.
# [3] = tested on: locally advanced or metastatic solid tumors; experiment: Phase 1 study: antitumor activity, investigator assessment (RECIST v.1.1); assay type: in vivo, human (Japanese patients)
# Protocol: Antitumor activity was evaluated using radiological tumor assessments of all known or suspected disease sites. Imaging could include chest, abdomen, and pelvis computed tomography (CT) or magnetic resonance imaging (MRI) scans. Brain scans and bone scans were performed at baseline if disease was suspected and during the study as appropriate. CT or MRI scans were conducted at baseline (screening visit), on Day 1 (±7 days) of Cycle 2, and every other cycle thereafter, whenever disease progression was suspected, and at the time of withdrawal from treatment (if not performed within 6 weeks). Tumor response (unconfirmed) was assessed using Response Evaluation Criteria in Solid Tumors (RECIST) v.1.1, and included best overall response (complete response [CR], partial response [PR], stable disease [SD], progressive disease [PD], and non-CR/non-PD), objective response, defined as the sum of CR and PR, and overall disease control rate, defined as the sum of CR, PR, SD, and non-CR/non-PD.
# PARP = tested on: PARP; design: method as in PMID 24356813, PMID 31296812; settings: PARP inhibition; read-out: Half-maximal inhibitory concentration; cited from earlier work
# PARP on DNA = tested on: PARP on DNA; design: method as in PMID 24356813; settings: compared with other PARP inhibitors under investigation or approved in Japan; cited from earlier work
# [4] = tested on: HER2-negative advanced breast cancer with a germline BRCA1/2 mutation; design: method as in PMID 30110579, PMID 30124753; settings: 1 mg QD versus chemotherapy; 95% CI 0.41 to 0.71, P < 0.001; cited from earlier work
# [5] = tested on: non-Japanese patients with advanced breast cancer; design: method as in PMID 32162822; settings: EMBRACA study; cited from earlier work
# [6] = 0.75 mg QD oral, N = 3, listed as talazoparib
# [7] = 1 mg QD oral, N = 6, listed as talazoparib
# [8] = plasma, multiple dose 0.75 mg QD oral, N = 3
smiles,measurement,setting,value
"Cn1ncnc1[C@H]1c2n[nH]c(=O)c3cc(F)cc(c23)N[C@@H]1c1ccc(F)cc1 [Talazoparib, talazoparib]",TEAE leading to death,"[1]; 0.75 mg QD oral, N = 3",0 n (%)
same,TEAE leading to death,"[1]; 1 mg QD oral, N = 6",0 n (%)
same,Dose reduction due to TEAE,"[1]; human, in vivo",1 (11.1) n (%)
same,TEAE leading to death,"[1]; total, 0.75 and 1 mg QD, N = 9",0 n (%)
same,Dose proportionality of drug exposure (Cmax and AUC),[2]; 1 mg dose level compared with 0.75 mg dose level,slightly higher than dose-proportional
same,Cmax,"[2]; human, plasma, po, 0.75 mg, multiple dose 0.75 mg QD oral, N = 3",14.4 ng/mL
same,half-life,"[2]; human, plasma, po, 0.75 mg, plasma, single dose 0.75 mg oral, N = 3, mean (standard deviation)",56.6 h
same,Tmax,"[2]; human, plasma, po, 0.75 mg, plasma, single dose 0.75 mg oral, N = 3, read-out: Tmax",0.98 h
same,Cmax,"[2]; human, plasma, po, 0.75 mg, single dose 0.75 mg oral, N = 3",7.24 ng/mL
same,Cmax,"[2]; human, plasma, po, 1 mg, multiple dose 1 mg QD oral, N = 6",32.8 ng/mL
same,Tmax,"[2]; human, plasma, po, 1 mg, plasma, multiple dose 1 mg QD oral, N = 6, read-out: Tmax",1.03 h
same,half-life,"[2]; human, plasma, po, 1 mg, plasma, single dose 1 mg oral, N = 6, mean (standard deviation)",50.7 h
same,Tmax,"[2]; human, plasma, po, 1 mg, plasma, single dose 1 mg oral, N = 6, read-out: Tmax",0.97 h
same,Cmax,"[2]; human, plasma, po, 1 mg, single dose 1 mg oral, N = 6",13.8 ng/mL
same,AUC,"[2]; human, plasma, multiple dose 0.75 mg QD oral, N = 3",127 ng·h/mL
same,AUC,"[2]; human, plasma, multiple dose 1 mg QD oral, N = 6",245 ng·h/mL
same,AUC(0-inf),"[2]; human, plasma, single dose 0.75 mg oral, N = 3",108 ng·h/mL
same,AUC(0-inf),"[2]; human, plasma, single dose 1 mg oral, N = 6",200 ng·h/mL
same,Cmin,[2]; [8],2.18 (8) ng/mL
same,Tmax,[2]; [8],1.02 (1.0–1.9) h
same,Cmin,"[2]; plasma, multiple dose 1 mg QD oral, N = 6",3.65 (49) ng/mL
same,t1/2 (terminal half-life),"[2]; plasma, single dose 1 mg oral, N = 6, mean (standard deviation)",50.73 (10.1) h
same,Time to peak of mean plasma concentrations,[2]; single or multiple dosing at 0.75 mg QD or 1 mg QD,around 1 h
same,Best overall response (unconfirmed): CR,"[3]; 0.75 mg QD oral, N = 3",0 n (%)
same,Best overall response (unconfirmed): Non-CR/non-PD,"[3]; 0.75 mg QD oral, N = 3",1 (33.3) n (%)
same,Best overall response (unconfirmed): PD,"[3]; 0.75 mg QD oral, N = 3",2 (66.7) n (%)
same,Best overall response (unconfirmed): PR,"[3]; 0.75 mg QD oral, N = 3",0 n (%)
same,Best overall response (unconfirmed): SD,"[3]; 0.75 mg QD oral, N = 3",0 n (%)
same,Disease control (CR + PR + SD + non-CR/non-PD),"[3]; 0.75 mg QD oral, N = 3",1 (33.3) n (%)
same,Objective response (CR + PR),"[3]; 0.75 mg QD oral, N = 3",0 n (%)
same,Best overall response (unconfirmed): CR,"[3]; 1 mg QD oral, N = 6",0 n (%)
same,Best overall response (unconfirmed): Non-CR/non-PD,"[3]; 1 mg QD oral, N = 6",1 (16.7) n (%)
same,Best overall response (unconfirmed): PD,"[3]; 1 mg QD oral, N = 6",3 (50.0) n (%)
same,Best overall response (unconfirmed): PR,"[3]; 1 mg QD oral, N = 6",0 n (%)
same,Best overall response (unconfirmed): SD,"[3]; 1 mg QD oral, N = 6",2 (33.3) n (%)
same,Disease control (CR + PR + SD + non-CR/non-PD),"[3]; 1 mg QD oral, N = 6",3 (50.0) n (%)
same,Objective response (CR + PR),"[3]; 1 mg QD oral, N = 6",0 n (%)
same,Overall disease control rate (CR + PR + SD + non-CR/non-PD),"[3]; all 9 patients, 0.75 and 1 mg QD, unconfirmed responses",44.4%
same,Best overall response (unconfirmed): CR,"[3]; total, 0.75 and 1 mg QD, N = 9",0 n (%)
same,Best overall response (unconfirmed): Non-CR/non-PD,"[3]; total, 0.75 and 1 mg QD, N = 9",2 (22.2) n (%)
same,Best overall response (unconfirmed): PD,"[3]; total, 0.75 and 1 mg QD, N = 9",5 (55.6) n (%)
same,Best overall response (unconfirmed): PR,"[3]; total, 0.75 and 1 mg QD, N = 9",0 n (%)
same,Best overall response (unconfirmed): SD,"[3]; total, 0.75 and 1 mg QD, N = 9",2 (22.2) n (%)
same,Disease control (CR + PR + SD + non-CR/non-PD),"[3]; total, 0.75 and 1 mg QD, N = 9",4 (44.4) n (%)
same,Objective response (CR + PR),"[3]; total, 0.75 and 1 mg QD, N = 9",0 n (%)
same,PARP-trapping potential relative to other PARP inhibitors,PARP on DNA,approximately 100 times greater
same,Patients discontinued due to anemia,[5],0.7%
same,Patients discontinued due to hematologic toxicities,[5],1.4%
